{"source": "patent US20210145833A1", "about": "“Methods and Compositions for Hair Growth by Activating Autophagy” (The Regents of the University of California, priority 2018, published 2021)", "key": {"[1]": {"test_system": "C57BL/6J mouse dorsal skin", "assay": "Assay for hair regeneration in mice (topical treatment of shaved telogen dorsal skin)", "conditions": "for Rapid anagen entry on whole dorsal telogen skin: among treated mice", "method": "Anagen in black mice is macroscopically recognizable by the melanin pigment visible through the skin, as the melanogenic activity of follicular melanocytes is strictly coupled to the anagen stage of the hair cycle.\nAll compounds were tested in both male and female mice. Every experiment was repeated independently at least 2 times. Some treatments with different agents were performed concurrently with shared control arms. C57BL/6J male mice were obtained at 6 or 8 weeks of age from Jackson Laboratories (Bar Harbor, ME). C57BL/6J female mice were obtained at 8 weeks of age from Jackson Laboratories (Bar Harbor, Me.). Mice were fed a standard chow diet and provided ad libitum access to food and water throughout the study. Mice were shaved dorsally in telogen, i.e., postnatal days of about 43-45 for males (unless otherwise indicated) and Day 58 for females, respectively. Vehicle control (25 μL DMSO, unless otherwise indicated) or test compounds (in 25 μL DMSO, unless otherwise indicated) were topically applied on the shaved skin every other day (unless otherwise described) for the duration of the experiments (3-6 weeks). Appearance of skin pigmentation and hair growth were monitored and documented by photos and videos. Progression was also assigned a value from 0 to 100 based on pigmentation levels and hair shaft density, with 0 indicating no hair growth (and no pigmentation) and higher number corresponding to darker skin and larger areas of dense hair growth. […] The vehicle DMSO was also mixed with PLO base for topical application."}, "[2]": {"test_system": "p62/SQSTM1", "assay": "Western blot of treated mouse skin: p62", "assay_type": "in vivo", "conditions": "treated mouse telogen skin", "procedure": "(§1) Male mice were shaved and treated every other day starting on Postnatal Day 43. After 5 days, telogen skin samples were harvested and stage confirmed. […] Tissue and cell debris were removed by centrifugation and the lysate was boiled for 5 min in 1×SDS loading buffer containing 5% β-mercaptoethanol."}, "[3]": {"test_system": "LC3", "assay": "Western blot of treated mouse skin: LC3", "assay_type": "in vivo", "conditions": "telogen skin of mice treated topically 5 days", "procedure": "as §1"}, "[4]": {"test_system": "Beclin 1 S14 phosphorylation", "assay": "Western blot of treated mouse skin: phosphorylated Beclin 1 S14", "assay_type": "in vivo", "conditions": "Day 5 post-treatment", "procedure": "as §1"}, "[5]": {"test_system": "p62 transcript", "assay": "Quantitative RT-PCR of p62 transcript in treated skin", "assay_type": "in vivo, mouse", "conditions": "24 hours post-treatment, B2m internal control", "procedure": "At 24 hours post-treatment, telogen skin samples were harvested and total RNA was isolated using TRIzol reagent (Invitrogen) from whole thickness mouse skin tissue. cDNA was synthesized using iScript Reverse Transcription Supermix (Bio-Rad). iTaq Universal SYBR Green Supermix (Bio-Rad) and a Bio-Rad CFX Connect instrument were used for quantitative RT-PCR. The primer sequences used for RT-qPCR are as follows: […]"}, "[6]": {"test_system": "Beclin 1 S91 phosphorylation", "assay": "Western blot of treated mouse skin: phosphorylated Beclin 1 S91", "assay_type": "in vivo", "procedure": "(§2) Male mice were shaved and treated every other day starting on Postnatal Day 43. After 5 days, telogen skin samples were harvested and stage confirmed. Mouse skin tissue lysate was prepared by homogenization in T-PER Tissue Protein Extraction Buffer (Thermo Scientific, 78510) with protease inhibitors (Roche, 11836153001) and phosphatase inhibitors (Sigma, P5726) by FastPrep-24 (MP Biomedicals). Tissue and cell debris were removed by centrifugation and the lysate was boiled for 5 min in 1×SDS loading buffer containing 5% β-mercaptoethanol. Samples were then subjected to SDS-PAGE on NuPAGE Novex 12% Bis-Tris gels (Invitrogen, NP0343BOX), and western blotting was carried out with antibodies against LC3 (Novus, NB100-2220), p62 (Sigma, P0068), Phospho-Beclin-1 (Ser15) (corresponding to Ser14 in mouse) (Cell Signaling, 84966), Phospho-Beclin-1 (Ser93) (corresponding to Ser91 in mouse) (Cell Signaling, 14717), Beclin-1 (Abcam, ab207612), or GAPDH (Ambion, AM4300)."}, "[7]": {"test_system": "autophagy related markers", "assay": "Western blot analysis of autophagy related markers in telogen skin", "assay_type": "in vivo, mouse", "procedure": "as §2"}, "[8]": {"test_system": "aged C57BL/6J mice", "assay": "Topical treatment of shaved aged mice (pilot experiments)", "assay_type": "in vivo, mouse", "conditions": "pilot experiments on aged mice (data not shown)", "procedure": "For oral α-KB treatment, aged male and female C57BL/6J mice were obtained at 87 weeks of age (NIA aged rodent colonies). Mice were housed in a controlled SPF facility (22±2° C., 6:00-18:00, 12 h/12 h light/dark cycle) at UCLA. […] For topical α-KB treatment, aged male C57BL/6J mice were obtained at 21 months of age (NIA aged rodent colonies), shaved the following week, and topically treated with α-KB (32 mM) every other day for one month. All experiments were approved by the UCLA Chancellor's Animal Research Committee."}, "[9]": {"test_system": "aged C57BL/6J mice", "assay": "Oral α-KB treatment of aged mice (hair loss / hair coating)", "assay_type": "in vivo, mouse", "conditions": "8 mM in drinking water over 30 weeks, aged female mice, 131 weeks of age", "procedure": "For oral α-KB treatment, aged male and female C57BL/6J mice were obtained at 87 weeks of age (NIA aged rodent colonies). Mice were housed in a controlled SPF facility (22±2° C., 6:00-18:00, 12 h/12 h light/dark cycle) at UCLA. […] Treatment with either water (vehicle control), or α-KB (90 mg/kg bodyweight) in drinking water, started when mice were at 101 weeks of age. For topical α-KB treatment, aged male C57BL/6J mice were obtained at 21 months of age (NIA aged rodent colonies), shaved the following week, and topically treated with α-KB (32 mM) every other day for one month. All experiments were approved by the UCLA Chancellor's Animal Research Committee."}, "[10]": {"test_system": "hair follicles", "conditions": "treatment group vs control", "excerpt": "Mouse dorsal skin was shaved before being collected for histological and molecular analyses. Full-thickness skin tissue was then fixed in 10% formalin solution (Sigma, HT501128) overnight and dehydrated for embedding in paraffin. […] Images were captured by Leica Aperio ScanScope AT brightfield system at ×20 magnification."}}, "note": "Entries after “also recorded” stand apart in the source; their conditions may differ.", "data": [{"smiles": "NC(=O)c1ncn([C@@H]2O[C@H](COP(=O)(O)O)[C@@H](O)[C@H]2O)c1N", "note": "[AICAR, 5-aminoimidazole-4-carboxamide ribonucleotide]", "values": [{"measurement": "Rapid anagen entry on whole dorsal telogen skin", "setting": "[1]", "result": "never"}, {"measurement": "Hair regeneration", "setting": "[1]; male mice shaved Postnatal Day 44, topical 16 mM every other day, Day 41 post-treatment", "result": "induces hair regeneration; also recorded: stimulated"}]}, {"smiles": "C=CCNc1ncnc2ccc(Br)cc12", "note": "[SMER28]", "values": [{"measurement": "p62 expression (Western blot)", "setting": "[2]", "result": "increased"}, {"measurement": "LC3 expression (Western blot)", "setting": "[3]", "result": "increased"}, {"measurement": "Rapid anagen entry on whole dorsal telogen skin", "setting": "[1]", "result": "observed from time to time"}, {"measurement": "Hair regeneration", "setting": "[1]; male mice shaved Postnatal Day 45, topical 1 mM daily, Day 23 post-treatment", "result": "greatly induced hair regeneration"}, {"measurement": "Hair regeneration", "setting": "[1]; mice shaved Postnatal Day 51, topical 2 mM every other day, Day 20 post-treatment", "result": "induced hair regeneration"}, {"measurement": "Beclin 1 S14 phosphorylation (mTOR-dependent)", "setting": "[4]", "result": "not increased"}, {"measurement": "p62 transcript levels (quantitative RT-PCR)", "setting": "[5]", "result": "increased"}, {"measurement": "Beclin 1 S91 phosphorylation (AMPK-dependent)", "setting": "[6]", "result": "not increased"}]}, {"smiles": "Cc1cc(Nc2cc(Cl)nc(Oc3ccc([N+](=O)[O-])cc3)n2)n[nH]1", "note": "[autophinib]", "values": [{"measurement": "Effect of co-treatment on hair regeneration by α-KG (64 mM)", "setting": "[1]; autophinib 4 mM, male mice shaved Postnatal Day 53, topical every other day, Day 20 post-treatment", "result": "inhibits hair regeneration by α-KG"}, {"measurement": "Effect of co-treatment on SMER28 (2 mM) induced hair regeneration", "setting": "[1]; autophinib 4 mM, mice shaved Postnatal Day 51, topical every other day, Day 20 post-treatment", "result": "inhibited; also recorded: prevented hair regeneration by SMER28"}]}, {"smiles": "CO/C1=C\\C(C)=C\\[C@@H](C)[C@@H](O)[C@@H](C)C/C(C)=C/C=C/[C@H](OC)[C@@H]([C@@H](C)[C@@H](O)[C@H](C)[C@@]2(O)C[C@@H](O)[C@H](C)[C@@H](C(C)C)O2)OC1=O", "note": "[bafilomycin A1]", "values": [{"measurement": "Effect of co-treatment on hair regeneration by α-KG (64 mM)", "setting": "[1]; bafilomycin 200 μM, male mice shaved Postnatal Day 52, topical every other day, Day 21 post-treatment", "result": "inhibits hair regeneration by α-KG"}]}, {"smiles": "CN(C)C(=N)N=C(N)N", "note": "[metformin]", "values": [{"measurement": "Autophagy induction", "setting": "[7]; topical treatment of mouse skin", "result": "similarly induced"}, {"measurement": "Rapid anagen entry on whole dorsal telogen skin", "setting": "[1]", "result": "never"}, {"measurement": "Hair regeneration", "setting": "[1]; male mice shaved Postnatal Day 43, topical 160 mM every other day, vehicle H2O, Day 48 post-treatment", "result": "induces hair regeneration; also recorded: similarly induced"}]}, {"smiles": "CC[C@H]1/C=C/C=C/C[C@@H](C)[C@H](O)[C@@](C)(O)C(=O)[C@@H](C)[C@H](O)[C@@H](C)C(=O)[C@@H](C)[C@H](O)[C@@H](C)/C=C/C(=O)O[C@@H]2[C@H](C)[C@H](CC1)O[C@]1(CC[C@H](C)[C@H](C[C@@H](C)O)O1)[C@H]2C", "note": "[oligomycin]", "values": [{"measurement": "LC3 expression (Western blot)", "setting": "[3]", "result": "Increased autophagy"}, {"measurement": "Rapid anagen entry on whole dorsal telogen skin", "setting": "[1]", "result": "observed from time to time"}, {"measurement": "Hair regeneration in female mice", "setting": "[1]; female mice shaved Postnatal Day 58, topical 10 μM every other day, Day 26 post-treatment", "result": "stimulate hair regeneration"}, {"measurement": "Hair regeneration", "setting": "[1]; male mice shaved Postnatal Day 44, topical 100 μM every other day, Day 23 post-treatment", "result": "similarly promoted hair regeneration"}, {"measurement": "Hair regeneration", "setting": "[1]; male mice shaved Postnatal Day 44, topical 100 μM every other day, Day 23 post-treatment, listed as Oligomycin", "result": "induces hair regeneration"}, {"measurement": "Beclin 1 S14 phosphorylation (mTOR-dependent)", "setting": "[4]", "result": "increased"}, {"measurement": "Beclin 1 S91 phosphorylation (AMPK-dependent)", "setting": "[6]", "result": "increased"}]}, {"smiles": "CO[C@H]1C[C@@H]2CC[C@@H](C)[C@@](O)(O2)C(=O)C(=O)N2CCCC[C@H]2C(=O)O[C@H]([C@H](C)C[C@@H]2CC[C@@H](O)[C@H](OC)C2)CC(=O)[C@H](C)/C=C(\\C)[C@@H](O)[C@@H](OC)C(=O)[C@H](C)C[C@H](C)/C=C/C=C/C=C/1C", "note": "[rapamycin]", "values": [{"measurement": "Adverse skin effect", "setting": "[1]; topical 16 μM (data not shown)", "result": "hair loss and open wounds"}]}, {"smiles": "CCC(=O)C(=O)O", "note": "[α-KB, α-ketobutyrate]", "values": [{"measurement": "Phosphorylated Beclin 1 (Western blot)", "setting": "[7]; telogen skin of mice treated 5 days", "result": "elevated"}, {"measurement": "LC3 expression (Western blot)", "setting": "[3]", "result": "elevated"}, {"measurement": "Rapid anagen entry on whole dorsal telogen skin", "setting": "[1]", "result": "never"}, {"measurement": "Hair regeneration", "setting": "[1]; male mice shaved Postnatal Day 44, topical 32 mM every other day, Day 39 post-treatment", "result": "induces hair regeneration; also recorded: substantially induced skin pigmentation and hair regeneration"}, {"measurement": "Hair growth / regeneration in shaved aged animals", "setting": "[8]", "result": "only moderately promoted hair growth"}, {"measurement": "Hair loss / hair coating in aged mice", "setting": "[9]", "result": "negates hair loss; also recorded: greatly improved hair coating"}]}, {"smiles": "O=C(O)CCC(=O)C(=O)O", "note": "[α-KG, α-ketoglutarate]", "values": [{"measurement": "Hair growth / regeneration in shaved aged animals", "setting": "[8]", "result": "did not visibly increase"}, {"measurement": "Follicles and proliferation marker Ki-67 expression", "setting": "[10]", "result": "More follicles and high proliferation marker Ki-67 expression"}]}]}
